# Data from patent US20260217701A1, “SELECTIVE BET INHIBITORS AND USES THEREOF” (Tay Therapeutics Limited, priority 2022, published 2026).
# Several values for one entry are separate records, joined by “and”; a condition that tells them apart may be missing. Equal entries are not always repeated. Where two headings read alike, the source gives them in different places.
# What was measured:
# [1] = Rat PK study #4 (Compound A PO 0.2 and 1.0 mg/kg, propylene glycol formulation); type: in vivo, Lewis rats; settings: male, Lewis, rat, plasma, po, propylene glycol-based formulation; for MRT inf: read-out: MRTInf_obs
# Protocol: For the fourth rat pharmacokinetic study, the pharmacokinetics of Compound A were assessed in male Lewis rats. Compound A was prepared in two different doses (0.2 mg/kg and 1.0 mg/kg) formulated in 20% propylene glycol/20% Vitamin E TPGS/60% water (see Table 1A for formulations). Animals were divided into two groups based on the compound formulation (n=3/group). The Compound A solutions were administered to animals orally (PO) and animals were then monitored over a 24 h period.
# Blood samples (~0.2 mL) were collected according to a schedule (0.25, 0.5, 1, 2, 4, 6, 8, and 24 h following the initial dosing) by jugular vein by cannulation and EDTA-K2 was used as anticoagulant. Within 30 minutes of collection, the samples were centrifuged at approximately 4000 times g-force for 5 minutes at 4° C. to obtain blood plasma. The plasma samples were immediately divided into two aliquots (~75 μL each), transferred to a cryogenic vial, and stored in a freezer at −75±15° C. prior to analysis.
# The concentration of Compound A in plasma samples was determined by liquid chromatography-mass spectrometry (LC-MS/MS) using a Shimadzu HPLC (DGU-20A5R; LC-30AD; SIL-30AC; Rack changer II; CTO-30A; and CBM-20A) and an AB API 5500+LC/MS/MS instrument. Samples were analyzed on an Agilent Poroshell 120 EC-C18 4 μm (50×2.1 mm) column. Solution A in the mobile phase was 95% water (0.1% formic acid) and solution B was 95% acetonitrile in water (0.1% formic acid), injection volume was 10 μL, and flow rate was 0.6 mL/min.
# To prepare samples for analysis, serial concentrations were prepared by diluting the stock solution of analyte with a 50% acetonitrile in water solution. 5 μL working solutions (5, 10, 20, 50, 100, 500, 1000, 5000, and 10000 ng/ml) were added to 50 μL of the blank Lewis rat plasma to achieve calibration standards of ~0.5 to 1000 ng/ml (0.5, 1, 2, 5, 10, 50, 100, 500, and 1000 ng/ml) in a total volume of 55 μL. Five quality control samples at 1 ng/ml, 2 ng/ml, 5 ng/ml, 50 ng/ml, and 800 ng/ml for plasma were prepared independently of those used for the calibration curves. These QC samples were prepared on the day of analysis in the same way as calibration standards.
# 55 μL of standards, 55 μL of QC samples and 55 μL of unknown samples (50 μL of unknown rat plasma with 5 µL of blank solution) were added to 200 μL of acetonitrile containing IS mixture (verapamil) for precipitating protein respectively. The samples were then vortexed for 30 s. After centrifugation at 4° C., 3900 rpm for 15 min, the supernatant was diluted 3 times with water. 10 μL of diluted supernatant was injected into the LC/MS/MS system for quantitative analysis.
# IL-22 = IL-22 release from activated human PBMCs (ELISA); type: cell-based; settings: for Percent Inhibition Relative to Control (IL-22): Donors 1-6, two values per donor; for IC50: Homo sapiens, PBMC
# Protocol: Human PBMCs used to analyze inhibition of CXCL10 were collected from 8 donors, PBMCs used to analyze inhibition of IL-17A were collected from 7 donors, and PBMCs used to analyze inhibition of IL-22 were collected from 6 donors. Compounds were serially diluted in 10 mM DMSO and further diluted in assay media to 100× the required final concentration, of which 2 μL was added to the specified well. […] The cell culture supernatant was collected and levels of IL-17A and IL-22 in the supernatant were assessed by ELISA (Invitrogen).
# [2] = 0.2 mg/kg, Lewis rats, PO 0.2 mg/kg, individual animals
# [3] = 0.2 mg/kg, Lewis rats, PO 0.2 mg/kg, mean of 3 animals
# [4] = 1 mg/kg, 1 mg/kg PO, individual animals
# [5] = 1 mg/kg, Lewis rats, PO 1 mg/kg, mean of 3 animals
smiles,measurement,setting,value
"Cn1cc(-c2ccccc2)c(-c2cn(C)c(=O)c3[nH]c(-c4cnn(C(F)(F)F)c4)cc23)cc1=O [Compound A, 6-methyl-4-(1-methyl-2-oxo-5-phenyl-1,2-dihydropyridin-4-yl)-2-(1-(trifluoromethyl)-1H-pyrazol-4-yl)-1,6-dihydro-7H-pyrrolo[2,3-c]pyridin-7-one]",concentration at 2 h,[1]; [2],7.99 ng/mL
same,concentration at 2 h,[1]; [3],7.09 ng/mL
same,concentration at 4 h,[1]; [3],6.11 ng/mL
same,concentration at 6 h,[1]; [2],4.13 ng/mL
same,concentration at 6 h,[1]; [3],4.48 ng/mL
same,concentration at 8 h,[1]; [3],3.96 ng/mL
same,concentration at 24 h,[1]; [3],0.389 ng/mL
same,Tmax,[1]; [4],2 h
same,half-life,[1]; [4],5.14 h
same,MRT inf,[1]; [4],7.1 h
same,AUC(0-inf),"[1]; 1 mg/kg, 1 mg/kg PO, mean",335 ng·h/mL
same,AUC(0-t),"[1]; 1 mg/kg, 1 mg/kg PO, mean",356 ng·h/mL
same,Tmax,"[1]; 1 mg/kg, 1 mg/kg PO, mean",2 h
same,half-life,"[1]; 1 mg/kg, 1 mg/kg PO, mean",7.24 h
same,Cmax,"[1]; 1 mg/kg, 1 mg/kg PO, mean, read-out: Cmax",38.6 ng/mL
same,MRT inf,"[1]; 1 mg/kg, 1 mg/kg PO, mean",9.3 h
same,concentration at 0.25 h,"[1]; 1 mg/kg, Lewis rats, PO 1 mg/kg, 0.25 h, mean of 3 animals",4.74 ng/mL
same,concentration at 0.5 h,"[1]; 1 mg/kg, Lewis rats, PO 1 mg/kg, 0.5 h, mean of 3 animals",15.2 ng/mL
same,concentration at 1 h,"[1]; 1 mg/kg, Lewis rats, PO 1 mg/kg, 1 h, mean of 3 animals",30.4 ng/mL
same,concentration at 2 h,[1]; [5],38.6 ng/mL
same,concentration at 4 h,[1]; [5],26.6 ng/mL
same,concentration at 6 h,[1]; [5],17.1 ng/mL
same,concentration at 8 h,[1]; [5],13.1 ng/mL
same,concentration at 24 h,[1]; [5],7.9 ng/mL
same,potency against IL-22 relative to CXCL10,IL-22,"about 17,000 fold"
same,Biomarker selectivity (IL-22 vs. CXCL 10),IL-22; Average preliminary biomarker assay,5178 Fold
same,Percent Inhibition Relative to Control (IL-22),IL-22; Compound Conc. 0.000137174 μM,36.49% and 20.77% and 20.31% and 15% and 13.22% and 40.62% and 42.44% and −18.99% and 2.10% and 20.38% and 35.83% and 13.68%
same,Percent Inhibition Relative to Control (IL-22),IL-22; Compound Conc. 0.000411523 μM,27.24% and 13.07% and 35.55% and 45.22% and 56.28% and 11.33* Percent and 49.71% and 35.72% and 28.88% and 47.8% and 62.34% and 36.26%
same,Percent Inhibition Relative to Control (IL-22),IL-22; Compound Conc. 0.001234568 μM,58.12% and 42.53% and 46.04% and 55.94% and 57.50% and 65.37% and 75.65% and 47.36% and 70.12% and 62.59% and 69.46% and 42.31%
same,Percent Inhibition Relative to Control (IL-22),IL-22; Compound Conc. 0.003703704 μM,71.96% and 57.94% and 67.89% and 62.44%
same,Percent Inhibition Relative to Control (IL-22),IL-22; Compound Conc. 0.011111111 μM,52.73% and 45.71% and 72.33% and 61.13% and 48.74% and 54.26% and 71.04% and 74.68% and 76.83% and 75.01% and 72.99% and 61.33%
same,Percent Inhibition Relative to Control (IL-22),IL-22; Compound Conc. 0.033333333 μM,59.22% and 62.46% and 72.37% and 75.81% and 66.02% and 52.09% and 58.24% and 79.61% and 59.59% and 77.99% and 81.27% and 61.98%
same,Percent Inhibition Relative to Control (IL-22),IL-22; Compound Conc. 0.1 μM,72.76% and 68.86% and 83.13% and 82.57% and 67.92% and 74.39% and 71.46% and 84.71% and 87.61% and 80.76% and 81.88% and 60.98%
same,Percent Inhibition Relative to Control (IL-22),IL-22; Compound Conc. 1.52416E−05 μM,−4.73% and 3.62% and −2.47% and −6.99% and −5.22% and 11.96% and 21.53% and −30.35% and −52.69% and −14.1* Percent and −16.32* Percent and −0.25%
same,Percent Inhibition Relative to Control (IL-22),IL-22; Compound Conc. 4.57247E−05 μM,−1.30% and −19.44% and 7.09% and −4.72% and −19.37% and 12.73% and 33.63% and −8.80% and 13.17% and 6.1% and 16.75% and −8.17%
same,IC50,"IL-22; Average preliminary biomarker assay, read-out: IL-22 IC50 Mean",0.2 nM
same,IC50,"IL-22; Preliminary biomarker assay, Test Subject 1, read-out: IL-22 IC50",0.2 nM
same,IC50,"IL-22; Preliminary biomarker assay, Test Subject 2, read-out: IL-22 IC50",0.1 nM
same,IC50,"IL-22; Preliminary biomarker assay, Test Subject 3, read-out: IL-22 IC50",0.3 nM
same,IC50,"IL-22; ELISA, read-out: Selectivity (IC50) IL-22",0.214 nM
same,"IC50, inhibition of release of IL-22","IL-22; human PBMCs, 72 hours",sub-nanomolar
